From US8470363B2, “Antihypertensive pharmaceutical composition” (Shihuida Pharmaceuticals Group (JILIN) Ltd., priority 2010, dated 2013)

Tests used:
[1] = system: spontaneous hypertension SHR rats; experiment: Blood pressure depressing test in rats (tail artery systolic pressure, tail volume method); type: in vivo, rat; details: for systolic pressure at the tail artery, before administration: baseline before administration, n=10 per group; for antihypertensive effect compared with the blank model group / systolic pressure at the tail artery, 1 week after administration / systolic pressure at the tail artery, 2 weeks after administration / systolic pressure at the tail artery, 3 weeks after administration / systolic pressure at the tail artery, 4 weeks after administration: intragastric; for antihypertensive effect compared with the blank model group: doses as in Table 3; for systolic pressure at the tail artery, 1 week after administration / systolic pressure at the tail artery, 2 weeks after administration / systolic pressure at the tail artery, 3 weeks after administration / systolic pressure at the tail artery, 4 weeks after administration: levamlodipine benzenesulfonate 5 mg/kg·d, indapamide 5 mg/kg·d, compound low-dose 2.5+0.5 mg/kg·d, compound high-dose 2.5+2.5 mg/kg·d
Description: (§1) Experiment method: 50 health spontaneous hypertension SHR rats (female to male 1:1, weight 200-240 g) were equally divided into 5 groups according to the level of the hypertension (the specific grouping method is as shown in Table 3), and intragastrically administrated with the medicine. For the blood pressure of the rate, the systolic pressure at the tail artery of the rat when being wake and quite was indirectly measured by an electronic blood pressure meter through the tail volume method respectively before administration and at the end of one, two, three, and four weeks after administration. [table]

[2] = system: spontaneous hypertension SHR rats; experiment: Edema side effect in the SHR rat blood pressure test; type: in vivo; details: intragastric
Description: as §1, with “administration.” for “administration. [table]”

[3] = background statement, species not given; cited from earlier work

| Compound | systolic pressure at the tail artery, before administration [1] | antihypertensive effect compared with the blank model group [1] | systolic pressure at the tail artery, 1 week after administration [1] | systolic pressure at the tail artery, 2 weeks after administration [1] | systolic pressure at the tail artery, 3 weeks after administration [1] | systolic pressure at the tail artery, 4 weeks after administration [1] | occurrence of edema side effect ([2]; doses as in Table 3, up to 4 weeks) | half-life [3] | edema incidence rate ([2]; 5 mg levamlodipine benzenesulfonate/kg·d, up to 4 weeks) |
| --- | --- | --- | --- | --- | --- | --- | --- | --- | --- |
| CC1Cc2ccccc2N1NC(=O)c1ccc(Cl)c(S(N)(=O)=O)c1 (stereo not drawn) [Indapamide, indapamide] | 27.02 ± 1.39 KPa | significant antihypertensive effect | 26.88 ± 1.38 Kpa | 25.85 ± 1.38 KPa | 25.56 ± 1.35 KPa | 25.36 ± 1.36 KPa | no edema occurred | 17 h |  |
| levamlodipine benzenesulfonate | 26.96 ± 1.29 KPa | significant antihypertensive effect | 26.79 ± 1.31 Kpa | 25.33 ± 1.26 KPa | 24.55 ± 1.28 KPa | 23.87 ± 1.28 KPa |  |  | 10% |
